Data as given in patent US20260242336A1, “COMPOSITION FOR PREVENTING OR TREATING CANCER DISEASES COMPRISING ARYL-PIPERIDINE DERIVATIVE” (KOREA RESEARCH INSTITUTE OF CHEMICAL TECHNOLOGY, priority 2023, published 2026).
Where a name gives a salt, the structure may show the parent alone. Each block holds one compound with its values, some of them ahead of it.

Experiments:
TNKS-1 = target: T1, TNKS-1 (Homo sapiens, UniProt O95271); assay: TNKS1 Histone Ribosylation Colorimetric Assay Kit (tankyrase-1 colorimetric activity assay); assay type: biochemical; settings: for inhibition at 10 µM: read-out: TNKS-1 inhibitory activity (10 μM), 10 μM compound
T1 construct: purchased BPS Bioscience 80582
T1 sequence (O95271 1-1327): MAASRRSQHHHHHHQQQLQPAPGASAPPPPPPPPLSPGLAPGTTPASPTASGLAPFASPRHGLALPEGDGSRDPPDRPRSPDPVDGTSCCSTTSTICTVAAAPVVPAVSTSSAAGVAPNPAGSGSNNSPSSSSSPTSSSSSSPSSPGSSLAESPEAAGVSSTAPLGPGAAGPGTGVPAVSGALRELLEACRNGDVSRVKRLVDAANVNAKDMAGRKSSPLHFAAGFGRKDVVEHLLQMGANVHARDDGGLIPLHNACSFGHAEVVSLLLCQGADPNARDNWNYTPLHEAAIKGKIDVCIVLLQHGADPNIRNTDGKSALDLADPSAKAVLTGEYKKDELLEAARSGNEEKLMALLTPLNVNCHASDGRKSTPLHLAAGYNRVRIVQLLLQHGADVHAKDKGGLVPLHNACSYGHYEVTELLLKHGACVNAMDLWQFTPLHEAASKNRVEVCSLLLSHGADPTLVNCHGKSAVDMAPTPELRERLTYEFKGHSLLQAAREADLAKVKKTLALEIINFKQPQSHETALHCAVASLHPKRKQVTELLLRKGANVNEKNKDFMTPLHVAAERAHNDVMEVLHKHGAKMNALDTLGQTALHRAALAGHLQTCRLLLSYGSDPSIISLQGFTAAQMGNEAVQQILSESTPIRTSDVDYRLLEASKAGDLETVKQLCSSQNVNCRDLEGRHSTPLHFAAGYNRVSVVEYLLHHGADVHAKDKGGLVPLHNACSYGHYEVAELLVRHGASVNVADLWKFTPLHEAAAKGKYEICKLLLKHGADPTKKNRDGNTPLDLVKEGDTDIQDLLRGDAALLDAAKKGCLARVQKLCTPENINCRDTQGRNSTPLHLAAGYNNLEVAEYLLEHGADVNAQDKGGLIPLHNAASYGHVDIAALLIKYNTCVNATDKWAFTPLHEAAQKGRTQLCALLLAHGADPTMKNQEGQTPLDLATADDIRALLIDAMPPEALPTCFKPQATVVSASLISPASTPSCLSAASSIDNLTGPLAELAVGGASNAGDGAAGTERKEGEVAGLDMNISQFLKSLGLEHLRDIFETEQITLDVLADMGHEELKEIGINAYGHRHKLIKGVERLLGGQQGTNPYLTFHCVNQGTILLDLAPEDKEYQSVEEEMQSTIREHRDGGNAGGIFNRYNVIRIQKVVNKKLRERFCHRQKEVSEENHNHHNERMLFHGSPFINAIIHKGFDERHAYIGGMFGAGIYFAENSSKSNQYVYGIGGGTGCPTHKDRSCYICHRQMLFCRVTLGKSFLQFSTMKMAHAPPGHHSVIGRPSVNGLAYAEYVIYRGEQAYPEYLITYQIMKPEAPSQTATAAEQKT

[1] = test system: colon cancer cell line COLO320DM; assay: Cell viability by colony counting (methylene blue staining); settings: 10 days; for cell viability (in words): 2.5 μM to 40 μM; for cell viability inhibited: 40 μM
AXIN2 protein = assay: Western blotting of AXIN2 protein in colon cancer cell lines; assay type: cell-based, human; settings: COLO320DM and SW403, 10 μM, 24 hours
Text: (§1) After protein extraction, proteins were quantified through Western blotting (Bio-Rad, USA).

[2] = test system: beta-catenin transcriptional activity; assay: TCF/luciferase assay of beta-catenin transcriptional activity in HEK cells; assay type: cell-based; settings: Homo sapiens, HEK293, read-out: β-catenin IC50 in HEK cells
Description: To determine whether beta-catenin transcriptional activity is inhibited by the aryl-piperidine derivative compounds, compounds TI-61815 and TI-61910 were treated at various concentrations and examined in HEK cells using the TCF/luciferase assay system.

PARP-1 = target: T2, PARP-1 (Homo sapiens, UniProt P09874); assay: PARP-1 colorimetric activity assay kit; assay type: biochemical; settings: for inhibition of enzymatic activity of PARP-1 (in words): 1 μM
T2 construct: purchased BPS Bioscience 80580
T2 sequence (P09874 whole entry): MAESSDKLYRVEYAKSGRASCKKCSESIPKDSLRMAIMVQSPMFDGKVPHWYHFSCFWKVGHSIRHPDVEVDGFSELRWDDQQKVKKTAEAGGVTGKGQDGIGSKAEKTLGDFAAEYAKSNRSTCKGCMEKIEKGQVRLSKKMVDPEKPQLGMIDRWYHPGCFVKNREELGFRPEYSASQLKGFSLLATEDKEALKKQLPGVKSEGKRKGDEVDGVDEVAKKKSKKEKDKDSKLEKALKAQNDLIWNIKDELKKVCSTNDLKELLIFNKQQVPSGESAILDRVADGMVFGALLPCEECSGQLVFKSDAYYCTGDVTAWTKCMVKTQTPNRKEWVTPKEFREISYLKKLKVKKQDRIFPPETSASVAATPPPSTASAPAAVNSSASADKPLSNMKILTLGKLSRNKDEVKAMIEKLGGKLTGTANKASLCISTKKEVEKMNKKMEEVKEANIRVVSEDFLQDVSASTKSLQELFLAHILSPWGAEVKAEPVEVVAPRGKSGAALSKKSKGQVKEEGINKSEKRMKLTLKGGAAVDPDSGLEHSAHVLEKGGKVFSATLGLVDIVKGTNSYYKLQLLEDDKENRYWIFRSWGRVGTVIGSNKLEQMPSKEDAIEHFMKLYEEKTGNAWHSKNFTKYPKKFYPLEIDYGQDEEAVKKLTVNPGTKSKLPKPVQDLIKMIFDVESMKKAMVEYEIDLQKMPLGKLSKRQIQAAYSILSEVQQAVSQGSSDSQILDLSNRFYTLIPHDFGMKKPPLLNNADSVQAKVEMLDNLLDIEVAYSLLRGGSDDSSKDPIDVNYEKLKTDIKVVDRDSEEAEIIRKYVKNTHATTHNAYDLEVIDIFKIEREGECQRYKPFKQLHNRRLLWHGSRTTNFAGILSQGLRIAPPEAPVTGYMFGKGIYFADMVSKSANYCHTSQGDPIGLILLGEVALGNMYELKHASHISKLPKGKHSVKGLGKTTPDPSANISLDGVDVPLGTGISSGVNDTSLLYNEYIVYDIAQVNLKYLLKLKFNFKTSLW

[3] = test system: beta-catenin subgenes (AXIN2, CCND1, cMYC, FGF20); assay: Real-time PCR of beta-catenin subgene expression; assay type: cell-based, human; settings: COLO320DM, 10 μM, 24 hours
Text: After RNA extraction, cDNA was synthesized to quantify gene expression via real-time PCR.

[4] = test system: activated beta-catenin proteins; assay: Western blotting of activated beta-catenin protein in colon cancer cell lines; assay type: cell-based, human; settings: COLO320DM and SW403, 10 μM, 24 hours
Text: as §1

TNKS-2 = target: T3, TNKS-2 (Homo sapiens, UniProt Q9H2K2); assay: TNKS-2 enzymatic activity inhibition; assay type: biochemical
T3 sequence (Q9H2K2 1-1166): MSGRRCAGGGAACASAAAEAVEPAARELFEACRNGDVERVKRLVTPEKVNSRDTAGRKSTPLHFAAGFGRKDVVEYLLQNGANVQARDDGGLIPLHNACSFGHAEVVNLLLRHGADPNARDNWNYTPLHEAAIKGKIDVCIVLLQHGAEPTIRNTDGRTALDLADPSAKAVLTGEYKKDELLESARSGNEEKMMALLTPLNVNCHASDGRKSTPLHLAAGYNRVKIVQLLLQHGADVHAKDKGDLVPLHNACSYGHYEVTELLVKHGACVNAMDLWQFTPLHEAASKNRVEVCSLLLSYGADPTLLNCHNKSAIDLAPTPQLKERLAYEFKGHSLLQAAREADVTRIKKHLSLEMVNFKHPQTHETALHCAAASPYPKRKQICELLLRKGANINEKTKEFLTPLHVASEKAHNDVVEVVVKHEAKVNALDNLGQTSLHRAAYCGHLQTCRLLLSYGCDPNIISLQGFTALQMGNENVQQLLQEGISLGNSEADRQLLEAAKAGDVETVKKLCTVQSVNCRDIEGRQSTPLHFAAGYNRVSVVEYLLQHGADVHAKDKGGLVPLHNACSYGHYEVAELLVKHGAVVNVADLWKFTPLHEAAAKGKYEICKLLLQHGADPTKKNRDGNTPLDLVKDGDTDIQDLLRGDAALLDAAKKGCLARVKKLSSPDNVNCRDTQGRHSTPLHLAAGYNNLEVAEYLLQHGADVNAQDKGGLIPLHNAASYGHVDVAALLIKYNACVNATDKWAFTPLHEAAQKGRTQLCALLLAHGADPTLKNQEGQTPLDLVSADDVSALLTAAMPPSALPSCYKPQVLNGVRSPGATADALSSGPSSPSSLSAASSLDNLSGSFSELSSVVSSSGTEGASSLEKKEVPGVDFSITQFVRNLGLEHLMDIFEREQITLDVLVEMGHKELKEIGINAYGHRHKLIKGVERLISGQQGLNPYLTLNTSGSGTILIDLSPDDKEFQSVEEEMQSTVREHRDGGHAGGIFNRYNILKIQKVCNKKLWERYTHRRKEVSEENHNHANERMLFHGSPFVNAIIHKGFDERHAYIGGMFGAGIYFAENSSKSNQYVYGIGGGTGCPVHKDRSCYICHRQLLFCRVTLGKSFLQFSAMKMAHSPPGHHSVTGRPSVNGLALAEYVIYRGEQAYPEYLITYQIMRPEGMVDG

[5] = test system: colon cancer cell line COLO320DM; assay: Cell viability by colony counting after co-treatment with 5-FU; assay type: cell-based; settings: Homo sapiens, COLO 320DM, 240 h, 10 days, read-out: cell viability inhibited when co-treated with 5-FU, compared to the sole treatment; for cytotoxicity at 5 µM: 5 μM compound + 0.5 μM 5-FU; for cytotoxicity at 10 µM: 10 μM compound + 0.5 μM 5-FU
Description: Each cell line was purchased from the American Type Culture Collection (ATCC) and cultured respectively in RPMI 1640 (Roswell Park Memorial Institute 1640) medium supplemented with 10% fetal bovine serum (FBS), 100 μg/ml streptomycin, and 100 units/ml penicillin in the presence of 5% CO2 at 37° C.
Afterwards, the cell viability was identified by counting the number of colonies by staining with 1.5% methylene blue.

PARP-2 = PARP-2 (Homo sapiens, UniProt Q9UGN5); assay: PARP-2 enzymatic activity inhibition; assay type: biochemical
Sequence of PARP-2 (Q9UGN5 whole entry): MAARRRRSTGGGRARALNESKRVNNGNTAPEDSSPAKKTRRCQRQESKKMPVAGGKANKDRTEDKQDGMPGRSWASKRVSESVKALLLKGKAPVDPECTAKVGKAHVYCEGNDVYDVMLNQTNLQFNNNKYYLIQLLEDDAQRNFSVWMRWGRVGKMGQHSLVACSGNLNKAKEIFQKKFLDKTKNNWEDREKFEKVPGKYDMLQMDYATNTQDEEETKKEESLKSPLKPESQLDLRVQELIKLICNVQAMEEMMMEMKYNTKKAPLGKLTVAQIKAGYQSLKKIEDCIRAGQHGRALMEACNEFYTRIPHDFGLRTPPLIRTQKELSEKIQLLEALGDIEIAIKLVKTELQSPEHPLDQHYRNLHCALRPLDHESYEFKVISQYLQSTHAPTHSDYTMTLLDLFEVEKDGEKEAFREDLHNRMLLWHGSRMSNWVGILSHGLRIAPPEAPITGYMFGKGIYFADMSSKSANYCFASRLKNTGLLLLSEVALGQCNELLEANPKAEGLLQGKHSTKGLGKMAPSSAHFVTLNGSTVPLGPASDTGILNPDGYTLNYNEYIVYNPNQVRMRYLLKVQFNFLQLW

inhibition at 10 µM (TNKS-1): 100%
Structure (SMILES): N#Cc1ccc(N2CCC(CCC(=O)Nc3nnc4ccccn34)CC2)cc1 [TI-62194]

inhibition at 10 µM (TNKS-1): 98 ± 0.1%
Structure (SMILES): CN(CC(=O)Nc1nnc2ccccn12)C1CCN(c2ccccc2C#N)CC1 [TI-62199, N-([1,2,4]triazolo[4,3-a]pyridin-3-yl)-2-((1-(2-cyanophenyl)piperidin-4-yl)(methyl)amino)acetamide]

inhibition at 10 µM (TNKS-1): 3 ± 0.9%
Structure (SMILES): CC(C)(C)OC(=O)N(CC(=O)Nc1nnc2ccccn12)C1CCN(c2ccccc2C#N)CC1 [TI-62197, tert-Butyl(2-([1,2,4]triazolo[4,3-a]pyridin-3-ylamino)-2-oxoethyl)(1-(2-cyanophenyl)piperidin-4-yl) carbamate]

inhibition at 10 µM (TNKS-1): 96 ± 0.2%
Structure (SMILES): O=C(CCC1CCN(c2ccc([N+](=O)[O-])cc2)CC1)Nc1nnc2ccccn12 [TI-62190]

inhibition at 10 µM (TNKS-1): 72 ± 0.3%
Structure (SMILES): N#Cc1ccccc1N1CCC(NCC(=O)Nc2nnc3ccccn23)CC1 [TI-62198, N-([1,2,4]triazolo[4,3-a]pyridin-3-yl)-2-((1-(2-cyanophenyl)piperidin-4-yl)amino)acetamide trifluoroacetic acid salt]

More lines, now with the values behind:

Structure (SMILES): N#Cc1ccccc1N1CCC(CCC(=O)Nc2cccc3[nH]ccc23)CC1 [TI-62126]
inhibition at 10 µM (TNKS-1): 1 ± 1.7%

Structure (SMILES): O=C(CCC1CCN(c2ccccc2[N+](=O)[O-])CC1)Nc1nnc2ccccn12 [TI-62188, N-([1,2,4]triazolo[4,3-a]pyridin-3-yl)-3-(1-(2-nitrophenyl)piperidin-4-yl)propanamide]
inhibition at 10 µM (TNKS-1): ≥ 95%

Structure (SMILES): N#Cc1ccccc1N1CCC(CCC(=O)Nc2cnc3cccnn23)CC1 [TI-62121, 3-(1-(2-cyanophenyl)piperidin-4-yl)-N-(imidazo[1,2-b]pyridazin-3-yl)propanamide]
inhibition at 10 µM (TNKS-1): 17 ± 1.5%

Structure (SMILES): O=C(CCC1CCN(c2cccc([N+](=O)[O-])c2)CC1)Nc1nnc2ccccn12 [TI-62189]
inhibition at 10 µM (TNKS-1): 100%

Structure (SMILES): N#Cc1ccccc1N1CCC(CCC(=O)Nc2nnc3ccccn23)CC1 [TI-61910, N-([1,2,4]triazolo[4,3-a]pyridin-3-yl)-3-(1-(2-cyanophenyl)piperidin-4-yl)propanamide]
cell viability (in words) [1]: decreased in a concentration-dependent manner
cell viability inhibited [1]: 60.8%
IC50 (TNKS-1): 18 nM
inhibition at 10 µM (TNKS-1): ≥ 95%
AXIN2 protein levels (AXIN2 protein): stabilization of AXIN2 protein levels
IC50 [2]: 490 nM
IC50 (PARP-1): > 10000 nM
inhibition of enzymatic activity of PARP-1 (in words) (PARP-1): almost no decrease in the inhibition of enzymatic activity of PARP-1
expression levels of beta-catenin subgenes (AXIN2, CCND1, cMYC, FGF20) [3]: inhibited the expression levels of beta-catenin subgenes
levels of the activated beta-catenin proteins [4]: inhibited levels of the activated beta-catenin proteins
IC50 (TNKS-2): 4 nM
cytotoxicity at 2.5 µM ([5]; 2.5 μM compound + 0.5 μM 5-FU): 26%
cytotoxicity at 5 µM [5]: 28.3%
cytotoxicity at 10 µM [5]: 35.5%
IC50 (PARP-2): > 10000 nM

Structure (SMILES): N#Cc1ccccc1N1CCC(CCC(=O)Nc2cnc3ccccn23)CC1 [TI-62122, 3-(1-(2-cyanophenyl)piperidin-4-yl)-N-(imidazo[1,2-a]pyridin-3-yl)propanamid]
inhibition at 10 µM (TNKS-1): 10 ± 0.9%

Structure (SMILES): N#Cc1ccccc1N1CCC(CC(=O)Nc2cnc3cccnn23)CC1 [TI-61816, 2-(1-(2-cyanophenyl)piperidin-4-yl)-N-(imidazo[1,2-b]pyridazin-3-yl)acetamide]
inhibition at 10 µM (TNKS-1): 5 ± 1.2%

Structure (SMILES): O=C(CCC1CCN(c2ccc([N+](=O)[O-])cc2[N+](=O)[O-])CC1)Nc1nnc2ccccn12 [TI-62195]
inhibition at 10 µM (TNKS-1): ≥ 95%

Structure (SMILES): N#Cc1ccccc1N1CCC(CC(=O)Nc2nnc3ccccn23)CC1 [TI-61815, N-([1,2,4]triazolo[4,3-a]pyridin-3-yl)-2-(1-(2-cyanophenyl)piperidin-4-yl)acetamide]
cell viability (in words) [1]: decreased in a concentration-dependent manner
cell viability inhibited [1]: 61.4%
IC50 (TNKS-1): 64 nM
inhibition at 10 µM (TNKS-1): ≥ 95%
AXIN2 protein levels (AXIN2 protein): stabilization of AXIN2 protein levels
IC50 [2]: 830 nM
IC50 (PARP-1): 7540 nM
inhibition of enzymatic activity of PARP-1 (in words) (PARP-1): almost no decrease in the inhibition of enzymatic activity of PARP-1
expression levels of beta-catenin subgenes (AXIN2, CCND1, cMYC, FGF20) [3]: inhibited the expression levels of beta-catenin subgenes
levels of the activated beta-catenin proteins [4]: inhibited levels of the activated beta-catenin proteins
IC50 (TNKS-2): 49 nM
cytotoxicity at 5 µM [5]: 12.4%
cytotoxicity at 10 µM [5]: 27.8%
IC50 (PARP-2): 6060 nM

Structure (SMILES): N#Cc1ccccc1N1CCC(CCCC(=O)Nc2nnc3ccccn23)CC1 [TI-62116, N-([1,2,4]triazolo[4,3-a]pyridin-3-yl)-4-(1-(2-cyanophenyl)piperidin-4-yl)butanamide]
inhibition at 10 µM (TNKS-1): 99 ± 0.1%
